Reference: patent US20180071367A1, “METHODS OF TREATING COGNITIVE IMPAIRMENTS OR DYSFUNCTION” (Oxeia Biopharmaceuticals, Inc., priority 2015, published 2018)
Where no end group is shown, it is not given here. The star is where a group is joined. Octanoyl = CCCCCCCC(=O)*

Experiments:
GHS-R = GHS-R (Homo sapiens, UniProt Q92847); test: GHS-R antagonist activity, cell based assay (Table 3); details: GHS-R antagonist activity in a cell based assay
[1] = tested on: oxidative burst in inflammatory cells; test: Oxidative burst (ROS) in inflammatory cells from brain tissue after mild brain injury (controlled cortical impact); format: in vivo; details: C57/B6 mice, mild BI by controlled cortical impactor, subcutaneous treatment, leukocytes isolated from brain tissue, DHR 123 flow cytometry, compared to mBI
Experimental: Ghrelin variant administration reduces oxidative burst in inflammatory cells following mild BI. Since no well-accepted animal model exists for concussions, a very small cerebral lesion that closely mimics mild BI is used as a model of mild BI. C57/B6 mice anesthetized with 5% isoflurane in oxygen (1.7 L/min) are given 0.3 mg/kg buprenorphine subcutaneously for analgesia prior to infliction of the mild brain injury. Anesthesia is assessed by paw pinch reflex. After creating a burr hole through the dura with a dental drill, a lesion using a controlled cortical impactor (CCI) is used to create injury 1 mm lateral and posterior to the bregma (5.0 mm/sec at a depth of 1.0 mm).
Animals are separated into three treatment groups: 1) Sham, 2) mild BI, and 3) mild BI plus ghrelin variant. A variety of doses can be tested depending upon the particular ghrelin variant. For example, 1 to 50 μg at one or more time points. As one example, treatment with subcutaneous ghrelin variant: 1 dose of 10 μg following mild BI and additional dose 10 μg 1 hour after. […] The fluorescence is then measured (AFU), higher intensity means greater oxidative burst and, therefore greater concentration or amount of ROS. […] Oxidative burst, which is a marker for ROS, can be measured by respiratory burst using flow cytometry (e.g., FL1 channel with 488-nm laser).

Sequence of GHS-R (Q92847 whole entry): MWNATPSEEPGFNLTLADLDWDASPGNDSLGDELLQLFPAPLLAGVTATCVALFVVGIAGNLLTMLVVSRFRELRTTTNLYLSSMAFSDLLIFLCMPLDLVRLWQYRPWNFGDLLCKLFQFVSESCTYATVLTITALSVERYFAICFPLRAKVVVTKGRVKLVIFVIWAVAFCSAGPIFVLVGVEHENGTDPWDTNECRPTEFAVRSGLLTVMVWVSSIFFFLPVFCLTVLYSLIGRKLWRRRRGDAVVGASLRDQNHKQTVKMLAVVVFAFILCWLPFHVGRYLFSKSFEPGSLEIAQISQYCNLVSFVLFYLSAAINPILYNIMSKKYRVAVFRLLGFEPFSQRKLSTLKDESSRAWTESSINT

Compound	Ki (GHS-R) [nM]	oxidative burst in inflammatory cells following mBI, quantified by arbitrary fluorescence unit (AFU) [1]
CCN(CC)CCCS(=O)(=O)N[C@H](CCc1ccccc1)c1nc(-c2cncn2C)n[nH]1 [Compound 135]	< 100	
ghrelin (GSS(Octanoyl)FLSPEHQRVQQRKESKKPPAKLQPR)		reduced the oxidative burst compared to mBI
